Columns and labels:
[1] = target: Replicase polyprotein 1ab (Severe acute respiratory syndrome coronavirus 2, UniProt P0DTD1); assay: Inhibition of recombinant SARS-CoV-2 main protease usingDABCYLKTSAVLQSGFRKME(EDANS)-NH2 fluorogenic peptide substrate by FRET assay
SARS-CoV-2 = assay: Antiviral activity against SARS-CoV-2 infected in African green monkey VeroE6 cells expressing TMPRSS2; format: functional, organism-based; settings: Severe acute respiratory syndrome coronavirus 2, Vero C1008

Row | SMILES | IC50 [1] | EC50 (SARS-CoV-2)
1 | Cn1cnc(Cn2c(=O)nc(Nc3cc4cn(C)nc4cc3Cl)n(Cc3cc(F)c(F)c(F)c3)c2=O)c1 | 0.006 µM | 1.03 µM
2 | Cn1cnc(Cn2c(=O)nc(NC3=CC4CCOC4C=C3Cl)n(Cc3cc(F)c(F)c(F)c3)c2=O)n1 (stereo not given) | 0.015 µM | 0.385 µM
3 | Cc1cncc(-n2c(=O)nc(Nc3cc4cn(C)nc4cc3Cl)n(Cc3cc(F)c(F)c(F)c3)c2=O)c1 |  | 0.177 µM
4 | Cn1cc2cc(Nc3nc(=O)n(-c4cncc(C(F)(F)F)c4)c(=O)n3Cc3cc(F)c(F)c(F)c3)c(Cl)cc2n1 |  | 6.6 µM
5 | Cn1cc2cc(Nc3nc(=O)n(Cc4cc(Cl)ccn4)c(=O)n3Cc3cc(F)c(F)cc3F)c(Cl)cc2n1 |  | 1.52 µM
6 | Cn1cnc(Cn2c(=O)nc(Nc3cc4cn(C)nc4cc3Cl)n(Cc3cc(F)c(F)c(F)c3F)c2=O)n1 | 0.01 µM | 0.395 µM
7 | CCn1cc2cc(Nc3nc(=O)n(Cc4ncn(C)n4)c(=O)n3Cc3cc(F)c(F)cc3F)c(Cl)cc2n1 |  | 0.533 µM
8 | Cc1cncc(-n2c(=O)nc(Nc3cc4cn(C)nc4cc3Cl)n(Cc3cc(C#N)c(F)cc3C)c2=O)c1 | 0.002 µM | 0.035 µM
9 | Cc1cncc(-n2c(=O)nc(Nc3cc4cn(C)nc4cc3Cl)n(Cc3cc(F)c(F)cc3F)c2=O)c1 |  | 0.131 µM
10 | Cn1cc2cc(Nc3nc(=O)n(Cc4cc5ccsc5[nH]c4=O)c(=O)n3Cc3cc(F)c(F)c(F)c3)c(Cl)cc2n1 | 0.004 µM | 0.321 µM
11 | Cn1cc2cc(Nc3nc(=O)n(-c4cncc5c4COC5)c(=O)n3Cc3cc(Cl)c(F)cc3F)c(Cl)cc2n1 |  | 0.68 µM
12 | Cn1cnc(Cn2c(=O)nc(Nc3cc4cn(CC(F)F)nc4cc3Cl)n(Cc3cc(F)c(F)cc3F)c2=O)n1 | 0.009 µM | 0.342 µM
13 | CCNC(=O)Cn1c(=O)nc(Nc2cc3cn(C)nc3cc2Cl)n(Cc2cc(F)c(F)c(F)c2)c1=O |  | 11.5 µM
14 | Cn1cnc(Cn2c(=O)nc(Nc3cc4cn(C)nc4cc3Cl)n(Cc3cccc4ccccc34)c2=O)n1 |  | 22.5 µM
15 | Cn1cnc(Cn2c(=O)nc(Nc3cc4cn(C)nc4cc3Cl)n(Cc3cc(Cl)c(F)c(Cl)c3)c2=O)n1 | 0.005 µM | 0.75 µM
16 | Cn1cnc(Cn2c(=O)nc(Nc3cc4cn(C)nc4cc3Cl)n(Cc3cc(F)c(F)c(F)c3)c2=O)n1 |  | 0.45 µM
17 | Cc1cnc(Cn2c(=O)nc(Nc3cc4cn(C)nc4cc3Cl)n(Cc3cc(F)c(F)cc3F)c2=O)nc1 |  | 5.85 µM
18 | Cn1cnc(Cn2c(=O)nc(Nc3cc4c(F)n(C)nc4cc3Cl)n(Cc3cc(F)c(F)cc3F)c2=O)n1 |  | 0.75 µM
